The values that follow come from patent publication US8466176B2 (priority 2008, dated 2013).

Read-outs that look alike come from different tables or passages of the source. Bounds are passed on as bounds.

Data set [1] is described as follows: Measurement of logP values according EEC directive 79/831 Annex V.A8 by HPLC on reversed phase columns. The format is physicochemical. The conditions noted are these: for chromatographic logP: reversed phase HPLC columns, read-out: log p.
A short description of data set [2]: logP(HCOOH) reported with HPLC/MS.
The next data set concerns Phytophthora infestans. The data set is described as follows: whole plant or invertebrate. The format is in vivo. The conditions noted are these: in Solanum lycopersicum, 168 h, read-out: efficacy.
The conditions of data set [3]: method [c]: LC-MS at pH 7.8, 0.001 molar ammonium hydrogen carbonate in water, linear gradient 10% to 95% acetonitrile.
The nature of data set [4]: logP by HPLC on reversed phase columns, method [a], pH 2.3 with 0.1% phosphoric acid and acetonitrile. In kind it is physicochemical. The conditions noted are these: reversed phase HPLC columns; method [a]: pH 2.3, 0.1% phosphoric acid and acetonitrile as eluent; EEC directive 79/831 Annex V.A8, reversed phase HPLC; read-out: log p.
Setting [5] is: method [a]: pH 2.3 with 0.1% phosphoric acid and acetonitrile as eluent.
Setting [6] is: no method mark printed in the cell.
Where [7] appears, read: HCOOH (formic acid), logP(HCOOH), HPLC/MS.
The mark [8] stands for this setting: reversed phase HPLC column, pH 2.7, log p, method [b]: LC-MS at pH 2.7, 0.1% formic acid in water and acetonitrile, linear gradient 10% to 95% acetonitrile.

Regarding `Cn1nnnc1C(=NOCc1csc(/C=C/CC2CCCC2)n1)c1ccccc1` [Example 279], the log p in data set [1] (setting [5]) is 5.14^[a].
In the case of `Cn1nnnc1C(=NOCc1cccc(NCC2CCCC2)n1)c1ccccc1` [Example 288], the log p in data set [1] (setting [5]) is 2.3^[a].
Regarding `Cn1nnnc1C(=NOCc1cccc(C=NOC2CCCCC2)n1)c1ccccc1` [Example 274, N-[(6-{[(cyclohexyloxy)imino]methyl}pyridin-2-yl)methoxy]-1-(1-methyl-1H-tetrazol-5-yl)-1-phenylmethanimine], the chromatographic logP in data set [1] (setting [5]) worked out at 4.89; in data set [2] (logP(HCOOH), HPLC/MS), 4.89.
Turning to `CCCCC#Cc1cccc(CON=C(c2ccccc2)c2nnnn2C)n1` [Example 23, N-{[6-(hex-1-yn-1-yl)pyridin-2-yl]methoxy}-1-(1-methyl-1H-tetrazol-5-yl)-1-phenylmethanimine], the pest or weed control at 500 ppm in the data set with Phytophthora infestans is at least 70%.
In the case of `Cn1nnnc1C(=NOCc1cccc(Br)n1)c1ccccc1` (single isomer, unassigned) [Example 306], the log p in data set [1] (setting [6]) came out at 3.19.
In the case of `CCCCC1CC(c2cccc(CON=C(c3ccccc3)c3nnnn3C)n2)=NO1` (stereo not drawn) [Example 276], in data set [1] (setting [5]), the log p is 4.26^[a].
For `Cn1nnnc1C(=NOCc1csc(Br)n1)c1ccccc1` [Example 32, N-[(2-bromo-1,3-thiazol-4-yl)methoxy]-1-(1-methyl-1H-tetrazol-5-yl)-1-phenyl-methanimine], the pest or weed control at 500 ppm in the data set with Phytophthora infestans was at least 70%. In data set [2] (logP(HCOOH), HPLC/MS), this compound came in with a chromatographic logP of 3.11.
As to `Cn1nnnc1C(=NOCc1csc(/C=C/C2CC2)n1)c1ccccc1` [Example 277], in data set [1] (setting [5]), the log p was 3.58^[a].
Take `Cn1nnnc1C(=NOCc1cccc(C2OCCO2)n1)c1ccccc1` [Example 160, N-{[6-(1,3-dioxolan-2-yl)pyridin-2-yl]methoxy}-1-(1-methyl-1H-tetrazol-5-yl)-1-phenylmethanimine]: the pest or weed control at 500 ppm with Phytophthora infestans is at least 70%. Besides, the chromatographic logP is 2.47 in data set [2] (HPLC, logP(HCOOH), HPLC/MS) and 2.47 in data set [2] (reversed phase HPLC column, pH 7.8, log p, method [c]: LC-MS, pH 7.8 with 0.001 molar ammonium hydrogen carbonate solution in water, linear gradient 10% to 95% acetonitrile).
`COc1ccc(CON=C(c2ccccc2)c2nnnn2C)nc1C#CC1CC1` [Example 126, N-{[6-(cyclopropylethynyl)-5-methoxypyridin-2-yl]methoxy}-1-(1-methyl-1H-tetrazol-5-yl)-1-phenylmethanimine]: the pest or weed control at 500 ppm in the data set on Phytophthora infestans is at least 70%. Besides, the chromatographic logP in data set [2] (setting [7]) and in data set [2] (setting [8]) was 3.23 throughout.
For the compound `COCC#Cc1cccc(CON=C(c2ccccc2)c2nnnn2C)n1` [Example 24], the log p in data set [3] was 3.04^[c].
With `Cn1nnnc1C(=NOCc1cccc(NCC2CCCCC2)n1)c1ccccc1` [Example 289], the log p in data set [1] (setting [5]) is 2.43^[a].
Take `Cn1nnnc1C(=NOCc1cccc(/C=C/C2CCCCC2)n1)c1ccccc1` [Example 93, N-({6-[(E)-2-cyclohexylvinyl]pyridin-2-yl}methoxy)-1-(1-methyl-1H-tetrazol-5-yl)-1-phenylmethanimine]: the pest or weed control at 500 ppm in the data set with Phytophthora infestans is at least 70%. For the same compound, the chromatographic logP in data set [4] is 5.05; in data set [2] (HPLC, logP(HCOOH), HPLC/MS) it was 5.05.
Consider `Cn1nnnc1C(=NOCc1cccc(NCCC2CCCCC2)n1)c1ccccc1` [Example 80, N-(2-cyclohexylethyl)-6-[({[(1-methyl-1H-tetrazol-5-yl)(phenyl)methylene]amino}oxy)methyl]pyridin-2-amine], for which the pest or weed control at 500 ppm with Phytophthora infestans is at least 70%.
As for `Cn1nnnc1C(=NOCc1cccc(Br)n1)c1ccccc1` (single isomer, unassigned) [Example 307], the log p in data set [1] (setting [6]) came out at 3.00.
Consider `Cn1nnnc1C(=NOCc1cccc(CO)n1)c1ccccc1` [Example 275, {6-[({[(1-methyl-1H-tetrazol-5-yl)(phenyl)methylene]amino}oxy)methyl]pyridin-2-yl}methanol], for which the chromatographic logP in data set [1] (setting [5]) and in data set [2] (setting [7]) was 1.76 in each case.
In the case of `Cn1nnnc1C(=NOCc1nc(C#CC2CC2)sc1Cl)c1ccccc1` [Example 114, N-{[5-chloro-2-(cyclopropylethynyl)-1,3-thiazol-4-yl]methoxy}-1-(1-methyl-1H-tetrazol-5-yl)-1-phenylmethanimine], the pest or weed control at 500 ppm with Phytophthora infestans is at least 70%. The chromatographic logP in data set [2] (setting [7]) and in data set [2] (setting [8]) was 4.59 each time.
Regarding `Cn1nnnc1C(=NOCc1nc(Cl)sc1Cl)c1ccccc1` [Example 113, N-[(2,5-dichloro-1,3-thiazol-4-yl)methoxy]-1-(1-methyl-1H-tetrazol-5-yl)-1-phenylmethanimine], the pest or weed control at 500 ppm with Phytophthora infestans was at least 70%. Also, the chromatographic logP in data set [2] (setting [7]) and in data set [2] (setting [8]) was 3.67 throughout.
Turning to `CCCC/C=C/c1nc(CON=C(c2ccccc2)c2nnnn2C)cs1` [Example 278, N-({2-[(1E)-hex-1-en-1-yl]-1,3-thiazol-4-yl}methoxy)-1-(1-methyl-1H-tetrazol-5-yl)-1-phenylmethanimine], the chromatographic logP in data set [1] (setting [5]) is 4.56; in data set [2] (HPLC, logP(HCOOH), HPLC/MS) it was 4.56.
On to `CCCCC#Cc1ccc(F)c(CON=C(c2ccccc2)c2nnnn2C)n1` [Example 99, N-{[3-fluoro-6-(hex-1-yn-1-yl)pyridin-2-yl]methoxy}-1-(1-methyl-1H-tetrazol-5-yl)-1-phenylmethanimine], for which the pest or weed control at 500 ppm in the data set with Phytophthora infestans was at least 70%. Moreover, the chromatographic logP stood at 4.41 in data set [2] (logP(HCOOH), HPLC/MS) and 4.41 in data set [2] (setting [8]).
On to `Cn1nnnc1C(=NOCc1csc(C#CC2CC2)n1)c1ccccc1` [Example 70, N-{[2-(cyclopropylethynyl)-1,3-thiazol-4-yl]methoxy}-1-(1-methyl-1H-tetrazol-5-yl)-1-phenylmethanimine], for which the pest or weed control at 500 ppm in the data set on Phytophthora infestans is at least 70%. Also, the chromatographic logP in data set [4] and in data set [2] (setting [7]) was 3.58 in each case.
